Where two headings read alike, the source gives them in different places. Each block holds one compound with its values, some of them ahead of it.
Assays:
[1] = target: T1, EP3 membrane (EP3 receptor) (Homo sapiens, UniProt P43115); assay: [3H]-PGE2 binding; EP3 competition binding (SPA)
T1 construct: purchased Millipore HTS092M
T1 sequence (P43115 1-390): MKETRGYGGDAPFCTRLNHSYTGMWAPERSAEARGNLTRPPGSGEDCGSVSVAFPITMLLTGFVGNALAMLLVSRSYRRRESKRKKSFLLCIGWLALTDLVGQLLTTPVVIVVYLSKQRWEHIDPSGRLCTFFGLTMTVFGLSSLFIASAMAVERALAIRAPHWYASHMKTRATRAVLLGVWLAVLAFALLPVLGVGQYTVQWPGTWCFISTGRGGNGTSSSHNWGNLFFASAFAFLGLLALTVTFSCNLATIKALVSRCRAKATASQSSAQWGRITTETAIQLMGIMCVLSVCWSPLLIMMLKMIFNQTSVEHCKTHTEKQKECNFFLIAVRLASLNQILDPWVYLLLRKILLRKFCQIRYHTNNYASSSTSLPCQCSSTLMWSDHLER
Procedure, shortened: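 SPA competition at room temperature, 2 h: EP3 membranes 2 μg/well, 2 nM [3H]-PGE2, 0.1% DMSO, in Tris/MgCl2/EDTA buffer pH 7.4. Compounds in 1:3 serial dilution; scintillation read; Ki by one-site nonlinear fit.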

[2] = target: T2, CHO cells over-expressing the EP3 receptor (Homo sapiens, UniProt P43115); assay: CHO cell cAMP assay; EP3 cAMP antagonist dose response (sulprostone reference), HTRF; type: cell-based; details: sulprostone 700 nM (EC80) and FSK 2 μM (EC70); read-out: CHO_cAMP IC50
T2 construct: expressed in transfected cells; host or cells: CHO cells
T2 sequence (P43115 1-390): T1 sequence (P43115 1-390)
Procedure, shortened: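 EP3-overexpressing CHO cells pre-incubated with test compound, then stimulated 30 min at 37 °C with FSK (2 μM, EC70) plus sulprostone (700 nM, EC80); antagonism seen as restored cAMP. cAMP measured by HTRF 665/615 ratio, converted via on-plate standard curve. IC50 from Hill fit of 11-point dosing.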

Structure (SMILES): O=C(NC/C(F)=C1\COCc2cnn(-c3cccc(C(F)(F)F)c3)c21)NS(=O)(=O)c1ccc(Cl)cc1 [Compound #104, (E)-4-chloro-N-((2-fluoro-2-(1-(3-(trifluoromethyl)phenyl)-1,4-dihydropyrano[4,3-c]pyrazol-7(6H)-ylidene)ethyl)carbamoyl)benzenesulfonamide]
Ki [1]: > 10000 nM
IC50 [2]: > 20 µM

Structure (SMILES): Cc1cc(S(=O)(=O)NC(=O)NC/C(F)=C2\CCCc3cnn(Cc4ccc(Cl)cc4Cl)c32)sc1Cl [Compound #149, (Z)-5-chloro-N-((2-(1-(2,4-dichlorobenzyl)-1,4,5,6-tetrahydro-7H-indazol-7-ylidene)-2-fluoroethyl)carbamoyl)-4-methylthiophene-2-sulfonamide]
Ki [1]: 2 nM
IC50 [2]: 0.006 µM

Structure (SMILES): O=C(NC/C=C1\CC(F)(F)Cc2cnn(-c3cccc(C(F)(F)F)c3)c21)NS(=O)(=O)c1ccc(Cl)cc1 [Compound #70, (E)-4-chloro-N-((2-(5,5-difluoro-1-(3-(trifluoromethyl)phenyl)-1,4,5,6-tetrahydro-7H-indazol-7-ylidene)ethyl)carbamoyl)benzenesulfonamide]
Ki [1]: 1000 nM
IC50 [2]: 8.2 µM

Structure (SMILES): O=C(NS(=O)(=O)c1ccc(Cl)cc1)OC/C=C1/c2c(cnn2Cc2ccc(Cl)cc2Cl)CCC1F (stereo not drawn) [Compound #50, (Z)-2-(1-(2,4-dichlorobenzyl)-6-fluoro-1,4,5,6-tetrahydro-7H-indazol-7-ylidene)ethyl ((4-chlorophenyl)sulfonyl)carbamate]
Ki [1]: 29 nM
IC50 [2]: 0.075 µM

Structure (SMILES): O=C(NC/C=C1\CCCc2cnn(-c3cccc4ccccc34)c21)NS(=O)(=O)c1cc(Cl)c(Cl)s1 [Compound #78, (E)-4,5-dichloro-N-((2-(1-(naphthalen-1-yl)-1,4,5,6-tetrahydro-7H-indazol-7-ylidene)ethyl)carbamoyl)thiophene-2-sulfonamide]
Ki [1]: 1 nM
IC50 [2]: 0.01 µM

Structure (SMILES): O=C(NC/C=C1\COCc2cnn(Cc3ccc(Cl)cc3Cl)c21)NS(=O)(=O)c1cc(Cl)c(Cl)s1 [Compound #49, (Z)-4,5-dichloro-N-((2-(1-(2,4-dichlorobenzyl)-1,4-dihydropyrano[4,3-c]pyrazol-7(6H)-ylidene)ethyl)carbamoyl)thiophene-2-sulfonamide]
Ki ([1]; unit nM): 0.4 nM
IC50 [2]: 0.001 µM

Structure (SMILES): O=C(C/C=C1\CCCc2cnn(Cc3ccc(Cl)cc3Cl)c21)NS(=O)(=O)c1cc2ccccc2s1 [Compound #25, (E)-N-(benzo[b]thiophen-2-ylsulfonyl)-3-(1-(2,4-dichlorobenzyl)-1,4,5,6-tetrahydro-7H-indazol-7-ylidene)propenamide]
Ki [1]: 51 nM
IC50 [2]: 0.251 µM

Structure (SMILES): COc1ccc(Cl)cc1S(=O)(=O)NC(=O)NC/C(F)=C1\CCCc2cnn(Cc3ccc(Cl)cc3Cl)c21 [Compound #89, (Z)-5-chloro-N-((2-(1-(2,4-dichlorobenzyl)-1,4,5,6-tetrahydro-7H-indazol-7-ylidene)-2-fluoroethyl)carbamoyl)-2-methoxybenzenesulfonamide]
Ki [1]: 26 nM
IC50 [2]: 0.16 µM

Structure (SMILES): COc1ccc(Cl)cc1S(=O)(=O)NC(=O)NC/C(F)=C1/c2c(cnn2Cc2ccc(Cl)cc2Cl)CCC1F (stereo not drawn) [Compound #103, (E)-5-chloro-N-((2-(1-(2,4-dichlorobenzyl)-6-fluoro-1,4,5,6-tetrahydro-7H-indazol-7-ylidene)-2-fluoroethyl)carbamoyl)-2-methoxybenzenesulfonamide]
Ki [1]: 54 nM
IC50 [2]: 0.228 µM

Structure (SMILES): COc1ccc(Cl)cc1S(=O)(=O)NC(=O)NC/C(F)=C1\CCCc2cnn(-c3ccc4ccccc4c3)c21 [Compound #115, (Z)-5-chloro-N-((2-fluoro-2-(1-(naphthalen-2-yl)-1,4,5,6-tetrahydro-7H-indazol-7-ylidene)ethyl)carbamoyl)-2-methoxybenzenesulfonamide]
Ki [1]: 1100 nM
IC50 [2]: 4.2 µM

More lines, now with the values ahead:

Ki [1]: 37 nM
IC50 [2]: 0.272 µM
Structure (SMILES): COc1ccc(F)cc1S(=O)(=O)NC(=O)NC/C(F)=C1\CCCc2cnn(Cc3ccc(Cl)cc3Cl)c21 [Compound #90, (Z)—N-((2-(1-(2,4-dichlorobenzyl)-1,4,5,6-tetrahydro-7H-indazol-7-ylidene)-2-fluoroethyl)carbamoyl)-5-fluoro-2-methoxybenzenesulfonamide]

Ki [1]: > 10000 nM
IC50 [2]: > 20 µM
Structure (SMILES): O=C(NC/C(F)=C1/CCCCc2cnn(Cc3ccc(Cl)cc3Cl)c21)NS(=O)(=O)c1ccc(Cl)cc1 [Compound #102, (E)-4-chloro-N-((2-(1-(2,4-dichlorobenzyl)-4,5,6,7-tetrahydrocyclohepta[c]pyrazol-8(1H)-ylidene)-2-fluoroethyl)carbamoyl)benzenesulfonamide]

Ki [1]: 4100 nM
IC50 [2]: > 20 µM
Structure (SMILES): O=C(NC/C(F)=C1\CCCc2cnn(-c3ccc(C(F)(F)F)cc3)c21)NS(=O)(=O)c1ccc2c(c1)OCCO2 [Compound #116, (Z)—N-((2-fluoro-2-(1-(4-(trifluoromethyl)phenyl)-1,4,5,6-tetrahydro-7H-indazol-7-ylidene)ethyl)carbamoyl)-2,3-dihydrobenzo[b][1,4]dioxine-6-sulfonamide]

Ki [1]: 3 nM
IC50 [2]: 0.011 µM
Structure (SMILES): O=C(NS(=O)(=O)c1cc(Cl)c(Cl)s1)OC/C(F)=C1\CCCc2cnn(Cc3ccc(Cl)cc3Cl)c21 [Compound #34, (Z)-2-(1-(2,4-dichlorobenzyl)-1,4,5,6-tetrahydro-7H-indazol-7-ylidene)-2-fluoroethyl ((4,5-dichlorothiophen-2-yl)sulfonyl)carbamate]

Ki [1]: 289 nM
IC50 [2]: 1.27 µM
Structure (SMILES): O=C(NC/C(F)=C1\CCCc2cnn(Cc3ccc(C(F)(F)F)cc3)c21)NS(=O)(=O)c1cc2ccccc2s1 [Compound #133, (Z)—N-((2-fluoro-2-(1-(4-(trifluoromethyl)benzyl)-1,4,5,6-tetrahydro-7H-indazol-7-ylidene)ethyl)carbamoyl)benzo[b]thiophene-2-sulfonamide]

Ki [1]: 3 nM
IC50 [2]: 0.006 µM
Structure (SMILES): COc1ccc(Br)cc1S(=O)(=O)NC(=O)NC/C=C1\CCCc2cnn(Cc3ccc(Cl)cc3Cl)c21 [Compound #42, (E)-5-bromo-N-((2-(1-(2,4-dichlorobenzyl)-1,4,5,6-tetrahydro-7H-indazol-7-ylidene)ethyl)carbamoyl)-2-methoxybenzenesulfonamide]

Ki [1]: 2 nM
IC50 [2]: 0.008 µM
Structure (SMILES): O=C(NS(=O)(=O)c1cc(Cl)c(Cl)s1)OC/C=C1\COCc2cnn(Cc3ccc(Cl)cc3Cl)c21 [Compound #46, (Z)-2-(1-(2,4-dichlorobenzyl)-1,4-dihydropyrano[4,3-c]pyrazol-7(6H)-ylidene)ethyl ((4,5-dichlorothiophen-2-yl)sulfonyl)carbamate]

Ki [1]: 3 nM
IC50 [2]: 0.033 µM
Structure (SMILES): O=C(C/C=C1\CCCc2cnn(Cc3ccc(Cl)cc3Cl)c21)NS(=O)(=O)c1cc(Cl)c(Cl)s1 [Compound #3, (E)-3-(1-(2,4-dichlorobenzyl)-1,4,5,6-tetrahydro-7H-indazol-7-ylidene)-N-((4,5-dichlorothiophen-2-yl)sulfonyl)propanamide]

Ki [1]: 238 nM
IC50 [2]: 0.294 µM
Structure (SMILES): COc1ccc(-n2ncc3c2/C(=C/CNC(=O)NS(=O)(=O)c2ccc(Cl)cc2)CCC3)cn1 [Compound #105, (E)-4-chloro-N-((2-(1-(6-methoxypyridin-3-yl)-1,4,5,6-tetrahydro-7H-indazol-7-ylidene)ethyl)carbamoyl)benzenesulfonamide]

Ki [1]: 1300 nM
IC50 [2]: 6.7 µM
Structure (SMILES): O=C(NC/C(F)=C1/CCCc2cnn(Cc3ccc(Cl)cc3Cl)c21)NS(=O)(=O)c1cc(Cl)c(Cl)s1 [Compound #45, (E)-4,5-dichloro-N-((2-(1-(2,4-dichlorobenzyl)-1,4,5,6-tetrahydro-7H-indazol-7-ylidene)-2-fluoroethyl)carbamoyl)thiophene-2-sulfonamide]

Ki [1]: 472 nM
IC50 [2]: 4.6 µM
Structure (SMILES): O=C(NC/C(F)=C1/CCCn2nnc(Cc3ccccc3)c21)NS(=O)(=O)c1cc(Cl)c(Cl)s1 [Compound #135, (E)-N-((2-(3-benzyl-6,7-dihydro-[1,2,3]triazolo[1,5-a]pyridin-4(5H)-ylidene)-2-fluoroethyl)carbamoyl)-4,5-dichlorothiophene-2-sulfonamide]

Ki [1]: > 10000 nM
IC50 [2]: 15.7 µM
Structure (SMILES): O=C(NS(=O)(=O)c1ccc(Cl)cc1)OC/C=C1\c2c(cnn2Cc2ccc(Cl)cc2Cl)CCC1F (stereo not drawn) [Compound #51, (E)-2-(1-(2,4-dichlorobenzyl)-6-fluoro-1,4,5,6-tetrahydro-7H-indazol-7-ylidene)ethyl ((4-chlorophenyl)sulfonyl)carbamate]

Ki [1]: 9 nM
IC50 [2]: 0.008 µM
Structure (SMILES): Cn1cc(S(=O)(=O)NC(=O)NC/C=C2\CCCc3cnn(Cc4ccc(Cl)cc4Cl)c32)cn1 [Compound #152, (E)-N-((2-(1-(2,4-dichlorobenzyl)-1,4,5,6-tetrahydro-7H-indazol-7-idene)ethyl)carbamoyl)-1-methyl-1H-pyrazole-4-sulfonamide]

Ki [1]: 17 nM
IC50 [2]: 0.159 µM
Structure (SMILES): O=C(NC/C(F)=C1\CCCc2cnn(Cc3ccc(Cl)cc3Cl)c21)NS(=O)(=O)c1cc2ccccc2s1 [Compound #121, (Z)—N-((2-(1-(2,4-dichlorobenzyl)-1,4,5,6-tetrahydro-7H-indazol-7-ylidene)-2-fluoroethyl)carbamoyl)benzo[b]thiophene-2-sulfonamide]

Source: patent publication US20210253562A1, “ACYLSUFONAMIDE COMPOUNDS USEFUL AS EP3 RECEPTOR ANTAGONISTS” (Janssen Pharmaceutica NV, priority 2018, published 2021)
